According to PubChem BioAssay (NCI):
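Assay format: 96-well plates, 48-hour exposure. TGI is the concentration that stops growth completely.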

Columns and labels:
Test in all cases: DTP human tumour cell line panel, 48 h
[1] = test system: SR leukemia
[2] = test system: PC-3 prostate
[3] = test system: SNB-75 CNS
[4] = test system: OVCAR-5 ovarian
[5] = test system: BT-549 breast
[6] = test system: SW-620 colon
[7] = test system: MCF7 breast
[8] = test system: NCI/ADR-RES ovarian
[9] = test system: 786-0 renal
[10] = test system: RXF 393 renal
[11] = test system: MDA-MB-231 breast
[12] = test system: UACC-257 melanoma
[13] = test system: HL-60(TB) leukemia
[14] = test system: MDA-N
[15] = test system: DU-145 prostate
[16] = test system: OVCAR-8 ovarian
[17] = test system: RPMI-8226 leukemia
[18] = test system: HS 578T breast
[19] = test system: K-562 leukemia
[20] = test system: SN12C renal
[21] = test system: SF-539 CNS
[22] = test system: NCI-H226 lung
[23] = test system: A498 renal
[24] = test system: NCI-H522 lung
[25] = test system: UACC-62 melanoma
[26] = test system: MDA-MB-435
[27] = test system: IGROV1 ovarian
[28] = test system: SF-268 CNS
[29] = test system: MOLT-4 leukemia
[30] = test system: OVCAR-4 ovarian
[31] = test system: COLO 205 colon
[32] = test system: NCI-H460 lung
[33] = test system: T-47D breast
[34] = test system: SK-MEL-28 melanoma
[35] = test system: SK-MEL-5 melanoma
[36] = test system: CAKI-1 renal
[37] = test system: HT29 colon
[38] = test system: M14 melanoma
[39] = test system: HOP-62 NSCLC
[40] = test system: SK-OV-3 ovarian
[41] = test system: U251 CNS
[42] = test system: LOX IMVI melanoma
[43] = test system: A549 NSCLC
[44] = test system: HCT-15 colon
[45] = test system: MALME-3M melanoma
[46] = test system: UO-31 renal
[47] = test system: OVCAR-3 ovarian
[48] = test system: SNB-19 CNS
[49] = test system: HCT-116 colon
[50] = test system: TK-10 renal
[51] = test system: KM12 colon
[52] = test system: EKVX NSCLC
[53] = test system: SF-295 CNS
[54] = test system: CCRF-CEM leukemia
[55] = test system: SK-MEL-2 melanoma
[56] = test system: HOP-92 NSCLC
[57] = test system: HCC-2998 colon
[58] = test system: NCI-H23 lung
[59] = test system: ACHN renal

O=C(NNC(=O)c1ccccc1O)c1cccs1
TGI [1]: > 100 µM
TGI [2]: > 100 µM
TGI [3]: > 100 µM
TGI [4]: > 100 µM
TGI [5]: > 100 µM
TGI [6]: > 100 µM
TGI [7]: > 100 µM
TGI [8]: > 100 µM
TGI [9]: > 100 µM
TGI [10]: > 100 µM
TGI [11]: > 100 µM
TGI [12]: > 100 µM
TGI [13]: > 100 µM
TGI [14]: > 100 µM
TGI [15]: > 100 µM
TGI [16]: > 100 µM
TGI [17]: > 100 µM
TGI [18]: > 100 µM
TGI [19]: > 100 µM
TGI [20]: > 100 µM
TGI [21]: > 100 µM
TGI [22]: > 100 µM
TGI [23]: > 100 µM
TGI [24]: 64 µM
TGI [25]: > 100 µM
TGI [26]: > 100 µM
TGI [27]: > 100 µM
TGI [28]: > 100 µM
TGI [29]: > 100 µM
TGI [30]: > 100 µM
TGI [31]: > 100 µM
TGI [32]: > 100 µM
TGI [33]: > 100 µM
TGI [34]: > 100 µM
TGI [35]: > 100 µM
TGI [36]: > 100 µM
TGI [37]: > 100 µM
TGI [38]: > 100 µM
TGI [39]: > 100 µM
TGI [40]: > 100 µM
TGI [41]: > 100 µM
TGI [42]: > 100 µM
TGI [43]: > 100 µM
TGI [44]: > 100 µM
TGI [45]: > 100 µM
TGI [46]: > 100 µM
TGI [47]: > 100 µM
TGI [48]: > 100 µM
TGI [49]: > 100 µM
TGI [50]: > 100 µM
TGI [51]: > 100 µM
TGI [52]: > 100 µM
TGI [53]: > 100 µM
TGI [54]: > 100 µM
TGI [55]: > 100 µM

C[C@]12CC[C@@H]3c4cc(C=O)c(OCc5ccccc5)cc4CC[C@H]3[C@@H]1CCC2OCc1ccccc1 (some centres not stated)
TGI [1]: > 100 µM
TGI [2]: > 100 µM
TGI [3]: > 100 µM
TGI [4]: > 100 µM
TGI [5]: > 100 µM
TGI [6]: > 100 µM
TGI [7]: > 100 µM
TGI [8]: > 100 µM
TGI [9]: > 100 µM
TGI [10]: > 100 µM
TGI [11]: > 100 µM
TGI [12]: > 100 µM
TGI [56]: > 100 µM
TGI [13]: > 100 µM
TGI [14]: > 100 µM
TGI [15]: > 100 µM
TGI [16]: > 100 µM
TGI [17]: > 100 µM
TGI [18]: > 100 µM
TGI [19]: > 100 µM
TGI [57]: > 100 µM
TGI [20]: > 100 µM
TGI [21]: > 100 µM
TGI [22]: > 100 µM
TGI [23]: > 100 µM
TGI [24]: > 100 µM
TGI [25]: > 100 µM
TGI [26]: > 100 µM
TGI [58]: > 100 µM
TGI [28]: > 100 µM
TGI [29]: > 100 µM
TGI [30]: > 100 µM
TGI [31]: > 100 µM
TGI [32]: > 100 µM
TGI [33]: > 100 µM
TGI [34]: > 100 µM
TGI [35]: > 100 µM
TGI [36]: > 100 µM
TGI [37]: > 100 µM
TGI [38]: > 100 µM
TGI [39]: > 100 µM
TGI [40]: > 100 µM
TGI [41]: > 100 µM
TGI [42]: > 100 µM
TGI [43]: > 100 µM
TGI [59]: > 100 µM
TGI [44]: > 100 µM
TGI [46]: > 100 µM
TGI [47]: > 100 µM
TGI [49]: > 100 µM
TGI [50]: > 100 µM
TGI [51]: > 100 µM
TGI [52]: > 100 µM
TGI [53]: > 100 µM
TGI [54]: > 100 µM
TGI [55]: > 100 µM

O=C(Nc1ccc(-c2cn3ccccc3n2)cc1)c1cc(Br)ccc1O
TGI [1]: > 100 µM
TGI [2]: > 100 µM
TGI [3]: > 100 µM
TGI [4]: > 100 µM
TGI [5]: > 100 µM
TGI [6]: > 100 µM
TGI [7]: > 100 µM
TGI [8]: > 100 µM
TGI [9]: > 100 µM
TGI [10]: > 100 µM
TGI [11]: > 100 µM
TGI [12]: > 100 µM
TGI [56]: > 100 µM
TGI [13]: > 100 µM
TGI [14]: > 100 µM
TGI [15]: > 100 µM
TGI [16]: > 100 µM
TGI [17]: > 100 µM
TGI [18]: > 100 µM
TGI [19]: > 100 µM
TGI [20]: > 100 µM
TGI [21]: > 100 µM
TGI [22]: > 100 µM
TGI [23]: > 100 µM
TGI [24]: > 100 µM
TGI [25]: > 100 µM
TGI [26]: > 100 µM
TGI [27]: > 100 µM
TGI [58]: > 100 µM
TGI [28]: > 100 µM
TGI [29]: > 100 µM
TGI [30]: > 100 µM
TGI [31]: > 100 µM
TGI [32]: > 100 µM
TGI [33]: > 100 µM
TGI [34]: > 100 µM
TGI [35]: > 100 µM
TGI [36]: > 100 µM
TGI [37]: > 100 µM
TGI [38]: > 100 µM
TGI [39]: > 100 µM
TGI [40]: > 100 µM
TGI [41]: > 100 µM
TGI [42]: > 100 µM
TGI [43]: > 100 µM
TGI [59]: > 100 µM
TGI [44]: > 100 µM
TGI [45]: > 100 µM
TGI [47]: > 100 µM
TGI [48]: > 100 µM
TGI [49]: > 100 µM
TGI [50]: > 100 µM
TGI [51]: > 100 µM
TGI [52]: > 100 µM
TGI [53]: > 100 µM
TGI [54]: > 100 µM
TGI [55]: > 100 µM

CC#CC#C/C=C1/C=CC2(CCCCO2)O1 (configuration not stated)
TGI [1]: > 100 µM
TGI [2]: > 100 µM
TGI [3]: > 100 µM
TGI [4]: > 100 µM
TGI [5]: > 100 µM
TGI [6]: > 100 µM
TGI [7]: > 100 µM
TGI [8]: > 100 µM
TGI [9]: > 100 µM
TGI [11]: > 100 µM
TGI [12]: > 100 µM
TGI [56]: > 100 µM
TGI [13]: 47.4 µM
TGI [14]: > 100 µM
TGI [15]: > 100 µM
TGI [16]: > 100 µM
TGI [18]: > 100 µM
TGI [19]: > 100 µM
TGI [57]: > 100 µM
TGI [20]: > 100 µM
TGI [21]: > 100 µM
TGI [22]: > 100 µM
TGI [23]: > 100 µM
TGI [24]: > 100 µM
TGI [25]: > 100 µM
TGI [26]: > 100 µM
TGI [27]: > 100 µM
TGI [58]: > 100 µM
TGI [28]: > 100 µM
TGI [29]: > 100 µM
TGI [30]: > 100 µM
TGI [31]: > 100 µM
TGI [32]: > 100 µM
TGI [33]: > 100 µM
TGI [34]: > 100 µM
TGI [35]: > 100 µM
TGI [36]: > 100 µM
TGI [37]: > 100 µM
TGI [38]: > 100 µM
TGI [40]: > 100 µM
TGI [41]: > 100 µM
TGI [42]: > 100 µM
TGI [43]: > 100 µM
TGI [44]: > 100 µM
TGI [45]: > 100 µM
TGI [46]: > 100 µM
TGI [48]: > 100 µM
TGI [49]: > 100 µM
TGI [50]: > 100 µM
TGI [51]: > 100 µM
TGI [52]: > 100 µM
TGI [53]: > 100 µM
TGI [54]: 53.9 µM
TGI [55]: > 100 µM
